The record followed here is patent US20240122879A1, “COMPOSITIONS AND METHODS FOR TREATING OCULAR CHEMICAL BURNS” (OHIO STATE INNOVATION FOUNDATION, priority 2022, published 2024).

What all share (format): cell-based, mouse
Test [1] relates to mCEC. Put plainly: Scratch wound assay of mCECs treated with recombinant cytokines. Particulars: recombinant proteins, FIG. 4A, 4B. As for the experimental part: (§1) Recombinant pro-IL-1β and pro-IL-18 proteins were generated from E. coli. The proteins were treated with caspase 1 to obtain the active forms.
The coding sequences of human pro-IL-18 and pro-IL-1β were cloned into the PET28a vector, where an N-terminal 6xHis tag is added. The purification procedure is similar to the published protocol with minor modifications (Ramirez, et al. J Biol Chem. 2018 293(18): 7058-7067). Briefly, the respective plasmid was transformed into BL21 […] chemically competent cells. A single colony was picked to grow in LB media at 37° C. until OD600 researched 0.6, and 0.5 mM IPTG was used for overnight induction at ˜16° C. Harvested cells were collected by centrifugation, followed by resuspension in 50 mM Hepes (pH 7.5), 5 mM MgCl2, 1 mM PMSF, ˜0.5 mg/ml lysozyme and 50-100 U DNase I. After sonication, the cell lysates were centrifuged. The supernatant was then applied to a Ni-NTA affinity chromatography, where buffer A contained 50 mM Hepes (pH 7.5) and Buffer B contained an extra 500 mM imidazole. Fractions with the highest purities were pooled and applied to a diethylaminoethyl-cellulos (DEAE) ion exchange chromatography, where buffer A′ contained 50 mM Hepes (pH 7.5) and Buffer B′ contained an extra 500 mM NaCl. As judged by SDS PAGE, fractions with >95% purity were pooled and dialyzed in 50 mM Hepes (pH 7.5) and 100 mM NaCl.
Recombinant human caspase-1 was purchased from Enzo Life Sciences (ALX-201-056). The cleavage of pro-IL-18 or pro-IL-1β was performed at 37° C. in PBS buffer containing 2 mM DTT.
To induce cellular migration, an in vitro scratch test was performed using mCECs. Cells were treated with dissected corneas or cytokines when they reached confluence, were subsequently scratched with a micropipette tip, and incubated for up to 12 hrs. Images were taken at 0, 3, 6, and 9 hours after the initial scratch. Images of wound closure were quantified by using ImageJ software.

Test [2] concerns mCEC. Put plainly: Transepithelial electrical resistance (TEER) of mCEC treated with recombinant proteins. Particulars: FIG. 4C. Here is the method:
as §1
mCEC were seeded in transwell inserts (2×10^5 per well) and allowed to become confluent. For the protein treatment, proteins were added into the culture medium 16 or 4 hours before measurement; the EVOM2 instrument was used to measure the TEER. For the co-culture experiments, mCEC were seeded in the transwell inserts and allowed to become confluent. The isolated primary neutrophils were then seeded into 24 well plates and the EVOM2 instrument was used to measure the TEER at 24 hr.

The subject of the next test is corneal epithelial cells. Description: ZO-1 staining of corneal epithelial cells treated with recombinant proteins. Particulars: FIG. 4D, 4E. As for the experimental part: as §1

As to “active IL-1β: recombinant human pro-IL-1β from E. coli treated with caspase 1 to obtain the active form”, the results for the “mCEC wound closure / migration” value in the test on mCEC [1] and in the test with mCEC [1] (listed as activated IL-1β) were “significantly delayed mCEC wound closure” and “significantly suppress corneal epithelial cell migration”, respectively. The “epithelial tight junctions / electrical resistance by TEER” value with mCEC [2] is given as “disrupted epithelial cell tight junctions”; in the test with mCEC [2] (listed as activated IL-1β), “significantly reduce the electrical resistance”. Further, the “tight junctions by ZO-1 staining” value is on record as “disrupted epithelial cell tight junctions” in the test on corneal epithelial cells and “tight junction was disrupted” in the test on corneal epithelial cells (listed as activated IL-1β).
Turning to “active IL-18: recombinant human pro-IL-18 from E. coli treated with caspase 1 to obtain the active form”, the entries for the “mCEC wound closure / migration” value in the test on mCEC [1] and with mCEC [1] (listed as activated IL-18) were “significantly delayed mCEC wound closure” and “significantly suppress corneal epithelial cell migration”, respectively. Besides, the “epithelial tight junctions / electrical resistance by TEER” value with mCEC [2] is “disrupted epithelial cell tight junctions”; in the test with mCEC [2] (listed as activated IL-18), “significantly reduce the electrical resistance”. Moreover, the results for the “tight junctions by ZO-1 staining” value in the test on corneal epithelial cells and with corneal epithelial cells (listed as activated IL-18) were “disrupted epithelial cell tight junctions” and “tight junction was disrupted”, respectively.
Consider “boiled IL-1β: boiled recombinant IL-1β protein used as control”, for which the “mCEC wound closure / migration” value with mCEC [1] is on record as “failed to alter mCEC migration”.
For “boiled IL-18: boiled recombinant IL-18 protein used as control”, the “mCEC wound closure / migration” value in the test on mCEC [1] is listed as “failed to alter mCEC migration”.
In the case of “pro-IL-1β: recombinant pro-IL-1β protein generated from E. coli, used as control”, in the test with mCEC [1], the “mCEC wound closure / migration” value was “failed to alter mCEC migration”.
As for “pro-IL-18: recombinant pro-IL-18 protein generated from E. coli, used as control”, in the test on mCEC [1], the “mCEC wound closure / migration” value was “failed to alter mCEC migration”.
